Test results reported in patent US12533444B2, “Mitigation of peri-implantitis by design and stability of bifunctional peptides with antimicrobial properties” (priority 2019, dated 2026).

How the values were obtained:
oral pathogens = settings: against oral pathogens; cited from earlier work
[1] = Peptide binding to titanium implant discs (percent surface coverage by fluorescence imaging); settings: FITC-labeled peptide, up to 6× theoretical footprint concentration, two minutes at 37° C., washed
Method: Titanium implant disc functionalization with bifunctional peptides was accomplished by incubating 100 μL of a specified fold concentration of the theoretical “footprint” concentration onto clean, sterile discs for different time periods at 37° C. for 2 minutes. Following incubation, the discs were transferred to a sterile well in a 24-well plate containing 500 μL of DI H2O and washed multiple times to remove unbound peptide. The discs were transferred to a clean glass microscope slide for imaging using a fluorescent microscope. All experiments were repeated a minimum of three times and images were recorded at 10× magnification.
A custom MatLab script was developed to determine the percent surface coverage of fluorescently labeled bifunctional peptides on the implant disc surface. The color fluorescent images were read into MatLab using the imread function. The images were converted to black and white and the total number of black and white pixels quantitated. […]
The theoretical footprint concentration of each bifunctional peptide with a multiple of the binding concentration up to 6× was determined to result in near 100% surface coverage after incubation with a titanium implant disc for only two minutes at 37° C. […] The fluorescent images were then analyzed using a MATLAB script to determine the percentage of the implant disc covered by the bifunctional peptides. […]

[2] = Serum competition binding assay with BSA on titanium implant discs; settings: presence of 0.01% BSA, 2 minutes at 37° C.
Source text: (§1) A custom MatLab script was developed to determine the percent surface coverage of fluorescently labeled bifunctional peptides on the implant disc surface. The color fluorescent images were read into MatLab using the imread function. The images were converted to black and white and the total number of black and white pixels quantitated. The number of white pixels corresponding to the fluorescently labeled peptides was divided by the total number of pixels to determine the percent surface coverage.
Prior to functionalization of sterile titanium implant discs, a solution of BSA and the bifunctional peptide was made in a sterile centrifuge tube. In a sterile 24 well plate, 100 μL of the BSA/bifunctional peptide solution was pipetted onto a titanium implant disc and incubated at 37° C. for 2 minutes. […]
The bifunctional peptide film could be applied to a new dental implant prior to implantation and subsequently during recall appointments for treatment to previously placed implants. […] Thus, the ability of the peptide film to functionalize the implant surface in the presence of serum proteins was determined by pre-mixing the peptide with varying concentrations of bovine serum albumin (BSA) followed by incubating the mixture on the titanium disc for 2 minutes at 37° C. […]

[3] = Peptide film coverage on implant discs after S. mutans challenge; settings: S. mutans challenge for 24 hours, FITC-labeled peptide
Source text: as §1
Streptococcus mutans bacteria (ATCC 700610) were cultured according to an ATCC protocol. Frozen stocks were streak plated on agar and incubated for 24 hours at 37° C. in atmosphere with 5% CO2. […]
Following the functionalization of titanium discs, they were transferred to a sterile well in a 24-well plate and 400 μL of S. mutans bacteria at a concentration of 10^3 CFU/mL was added to the wells containing the discs and incubated for 24 hours at 37° C. in atmosphere with 5% CO2. […] Experiments were repeated in triplicate and images were recorded at 10× magnification.
The binding and antimicrobial domain activities were evaluated by challenging the bifunctional peptide film applied to titanium implant discs with S. mutans bacteria for 24 hours. […]

S. mutans = assay: Propidium iodide staining of dead S. mutans bacteria on functionalized implant discs; type: cell-based, Streptococcus mutans; settings: discs functionalized 2 minutes at 37° C., S. mutans challenge 24 hours
Method: Streptococcus mutans bacteria (ATCC 700610) were cultured according to an ATCC protocol. Frozen stocks were streak plated on agar and incubated for 24 hours at 37° C. in atmosphere with 5% CO2. A single bacterial colony was used to inoculate 5 mL of Brain Heart Infusion (BHI) broth in a sterile 50 mL conical tube and incubated overnight in the same conditions. Following incubation, 1 mL of culture was added to 9 mL of fresh media and grown to mid-log phase with a final concentration of 10^5 CFU/mL.
Following the functionalization of titanium discs, they were transferred to a sterile well in a 24-well plate and 400 μL of S. mutans bacteria at a concentration of 10^3 CFU/mL was added to the wells containing the discs and incubated for 24 hours at 37° C. in atmosphere with 5% CO2. Following incubation, discs were imaged with a fluorescent microscope to visualize FTIC-labeled bifunctional peptides on the disc surface after bacterial challenge. The dead bacteria were stained with propidium iodide and imaged using a fluorescent microscope. Experiments were repeated in triplicate and images were recorded at 10× magnification.
The antimicrobial functional efficacy of TiBP-AMPA compared to TiBP-GL13K supported the design prediction. […] Representative fluorescent images and quantification of three replicate experiments are depicted in FIGS. 8A and 8B, respectively.

| Sequence | MIC (oral pathogens) | surface coverage (initial binding) [1] | surface coverage in competition with BSA [2] | surface coverage after bacterial challenge [3] | dead bacteria coverage (PI staining) (S. mutans) |
| --- | --- | --- | --- | --- | --- |
| GKIIKLKASLKLL [GL13K, cationic amphipathic antimicrobial peptide domain] | low |  |  |  |  |
| KWKLWKKIEKWGQGIGAVLKWLTTW [AMPA, cationic antimicrobial peptide domain] | low |  |  |  |  |
| RPRENRGRERGLGSGGGGKIIKLKASLKLL [TiBP-GL13K, comparative bifunctional peptide: TiBP, GSGGG spacer, GL13K antimicrobial domain] |  | 96% | 73% | 60% | 10% |
| RPRENRGRERGLGSGGGKWKLWKKIEKWGQGIGAVLKWLTTW [TiBP-AMPA] |  | 99% | 80% | 84% | 46% |
